Reference: patent US10087199B2, “Super-resolution imaging compositions and methods using same” (Yale University, priority 2014, dated 2018)

System: HeLa cells that stably expressed GalNAcT2-GFP (Golgi)
Experiment: Two-step Golgi labeling and colocalization with GalNAcT2-GFP by confocal microscopy
Format: cell-based
Settings: 2 μM Cer-TCO then 2 μM SiR-Tz, or SiR-Tz only; Golgi area; confocal
Experimental: To evaluate whether the Golgi could be selectively imaged using Cer-SiR, HeLa cells that stably expressed a protein fusion composed of GFP and N-acetyl-galactosaminyltransferase 2 (GalNAcT2), a transmembrane protein that localizes to the Golgi with high specificity (Storrie, et al., 1998, J. Cell Biol. 143:1505-1521), were used. These cells were treated with 2 μM Cer-TCO (5 min), maintained at 19.5° C. for 60 min to localize the lipid to the Golgi, treated subsequently with 2 μM SiR-Tz (30 min), and visualized using confocal microscopy (FIG. 2A).
The GalNAcT2-GFP and Cer-SiR signals colocalized with a Pearson's coefficient of 0.50±0.02; the corresponding value for the signals from GalNAcT2-GFP and SiR-Tz was 0.08±0.01 (p<0.0001) (FIG. 10), supporting that Cer-TCO effectively localized to the Golgi and reacted efficiently with SiR-Tz.
Stably or transiently transfected HeLa cells were cultured on 35 mm glass bottom dishes (Mattek). To label with Cer-TCO/SiR-Tz, the cells were incubated in PBS containing 1% casein, 0.2% Pluronic F-127 and 2 or 5 μM TCO-Cer for 5 min at 37° C. After washing three times with DMEM ph(−), the cells were incubated for 1 h at 19.5° C. in DMEM ph(−). During this incubation the dish was sealed with parafilm to protect the cells from the used water bath. Subsequently, the cells were washed three times and PBS containing 1% casein and 2 or 1 μM SiR-Tz, respectively, was added to the dish. The dish was sealed with parafilm again and incubated for 30 min at 19.5° C. After washing three times with DMEM ph(−), the cells were observed under a confocal microscope. Fixed samples were prepared similarly with an additional treatment with 4% PFA for 10 min at room temperature after first temperature block. […]
The Pearson correlation between the SiR and the GFP signal within cells was determined using the correlation measurement tool in Volocity. […] For cells stably expressing GalNAcT2-GFP and treated with SiR-Tz and Cer-TCO 13 samples (cells) were analyzed and for cells only treated with SiR-Tz 8 samples were analyzed. […]

`CCCCCCCCCCCCC/C=C/[C@@H](O)[C@H](CO)NC(=O)CCCCCNC(=O)OC1CCCC2=C(c3ccc(CNC(=O)c4ccc(C(=O)[O-])c(C5=C6C=CC(=[N+](C)C)C=C6[Si](C)(C)c6cc(N(C)C)ccc65)c4)cc3)NN=CC2CC1` (stereo partly drawn) [Cer-SiR, 4-((4-(7-(((6-(((2S,3R,E)-1,3-dihydroxyoctadec-4-en-2-yl)amino)-6-oxohexyl)carbamoyl)oxy)-2,4a,5,6,7,8,9,10-octahydrocycloocta[d]pyridazin-1-yl)benzyl)carbamoyl)-2-(7-(dimethylamino)-3-(dimethyliminio)-5,5-dimethyl-3,5-dihydrodibenzo[b,e]silin-10-yl)benzoate] was tested, and the “Pearson's coefficient of colocalization with GalNAcT2-GFP signal” value was 0.50±0.02.
